Experimental data from patent US20150307520A1, “NOVEL HETEROARYL AND HETEROCYCLE COMPOUNDS, COMPOSITIONS AND METHODS THEREOF” (HUTCHISON MEDIPHARMA LIMITED, priority 2012, published 2015).
pIC50: −log10 of the molar value.

Tests used:
Assay type in all cases: biochemical
p110β/p85α = p110β/p85α (Homo sapiens, UniProt P42338); test: Transcreener KINASE Assay, kinase inhibition of p110β/p85α; details: for PI3Kβ IH % @ 1 uM: 1 uM test compound; for pIC50: read-out: PI3Kβ IC50
How it was run: (§1)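 ADP formation read by far-red competitive FP immunoassay (60 min RT detection step) after an 80 min RT kinase reaction; substrate added as a 30 uM PIP2/10 uM ATP solution (not final).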

p110δ/p85α = p110δ/p85α (Homo sapiens, UniProt O00329); test: Transcreener KINASE Assay, kinase inhibition of p110δ/p85α; details: for PI3Kδ IH % @ 1 uM: 1 uM test compound; for pIC50: read-out: PI3Kδ IC50
p110δ/p85α, sequence (O00329 whole entry): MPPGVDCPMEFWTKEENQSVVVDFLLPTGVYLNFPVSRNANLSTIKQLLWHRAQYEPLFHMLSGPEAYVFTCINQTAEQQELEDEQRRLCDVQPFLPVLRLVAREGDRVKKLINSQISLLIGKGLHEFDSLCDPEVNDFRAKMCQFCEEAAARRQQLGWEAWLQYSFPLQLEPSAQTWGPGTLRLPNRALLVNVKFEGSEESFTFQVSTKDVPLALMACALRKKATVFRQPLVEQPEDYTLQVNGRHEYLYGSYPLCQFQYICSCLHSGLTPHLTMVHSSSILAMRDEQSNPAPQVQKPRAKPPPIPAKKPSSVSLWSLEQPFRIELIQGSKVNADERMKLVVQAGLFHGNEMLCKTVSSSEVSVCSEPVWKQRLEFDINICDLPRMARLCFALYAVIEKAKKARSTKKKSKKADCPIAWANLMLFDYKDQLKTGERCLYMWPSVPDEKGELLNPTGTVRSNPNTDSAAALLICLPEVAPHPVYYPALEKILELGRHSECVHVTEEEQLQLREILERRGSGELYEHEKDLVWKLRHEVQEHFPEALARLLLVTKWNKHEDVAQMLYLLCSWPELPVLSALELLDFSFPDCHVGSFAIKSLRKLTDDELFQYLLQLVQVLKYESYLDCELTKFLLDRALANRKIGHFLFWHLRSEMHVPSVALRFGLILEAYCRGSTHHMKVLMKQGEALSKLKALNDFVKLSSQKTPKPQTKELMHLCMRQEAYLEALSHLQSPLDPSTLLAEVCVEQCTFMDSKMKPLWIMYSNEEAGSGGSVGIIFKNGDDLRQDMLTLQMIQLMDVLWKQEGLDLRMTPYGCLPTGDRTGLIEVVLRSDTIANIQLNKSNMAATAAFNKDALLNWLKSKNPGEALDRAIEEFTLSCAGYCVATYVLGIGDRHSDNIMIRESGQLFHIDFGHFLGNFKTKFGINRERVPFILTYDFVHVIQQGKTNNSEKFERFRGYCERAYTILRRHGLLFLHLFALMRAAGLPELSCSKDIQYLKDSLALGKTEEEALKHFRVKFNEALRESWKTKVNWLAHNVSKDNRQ
p110δ/p85α, sequence (P27986 whole entry partner): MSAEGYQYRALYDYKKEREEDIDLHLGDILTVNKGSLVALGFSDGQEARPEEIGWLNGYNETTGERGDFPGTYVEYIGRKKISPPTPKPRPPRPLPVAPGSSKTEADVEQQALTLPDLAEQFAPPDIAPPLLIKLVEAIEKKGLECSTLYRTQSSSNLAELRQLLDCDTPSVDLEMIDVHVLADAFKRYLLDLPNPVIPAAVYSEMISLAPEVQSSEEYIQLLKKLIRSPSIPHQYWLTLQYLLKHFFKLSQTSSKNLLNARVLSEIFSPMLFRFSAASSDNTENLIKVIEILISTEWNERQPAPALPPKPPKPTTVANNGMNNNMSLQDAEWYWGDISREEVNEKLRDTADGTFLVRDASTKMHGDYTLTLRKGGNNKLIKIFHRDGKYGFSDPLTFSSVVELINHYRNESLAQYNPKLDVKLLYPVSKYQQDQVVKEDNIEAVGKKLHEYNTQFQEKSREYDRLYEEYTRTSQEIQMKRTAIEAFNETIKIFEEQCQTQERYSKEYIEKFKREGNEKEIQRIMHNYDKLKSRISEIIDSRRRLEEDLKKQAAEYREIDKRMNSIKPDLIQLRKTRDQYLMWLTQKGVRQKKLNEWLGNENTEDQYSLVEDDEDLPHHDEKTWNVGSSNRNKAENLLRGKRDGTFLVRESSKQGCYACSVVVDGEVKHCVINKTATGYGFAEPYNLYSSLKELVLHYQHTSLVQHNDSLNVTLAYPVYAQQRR
How it was run: as §1

p110γ = p110γ (Homo sapiens, UniProt P48736); test: Transcreener KINASE Assay, kinase inhibition of p110γ; details: for PI3Kγ IH % @ 1 uM: 1 uM test compound; for pIC50: read-out: PI3Kγ IC50
p110γ, sequence (P48736 whole entry, canonical isoform): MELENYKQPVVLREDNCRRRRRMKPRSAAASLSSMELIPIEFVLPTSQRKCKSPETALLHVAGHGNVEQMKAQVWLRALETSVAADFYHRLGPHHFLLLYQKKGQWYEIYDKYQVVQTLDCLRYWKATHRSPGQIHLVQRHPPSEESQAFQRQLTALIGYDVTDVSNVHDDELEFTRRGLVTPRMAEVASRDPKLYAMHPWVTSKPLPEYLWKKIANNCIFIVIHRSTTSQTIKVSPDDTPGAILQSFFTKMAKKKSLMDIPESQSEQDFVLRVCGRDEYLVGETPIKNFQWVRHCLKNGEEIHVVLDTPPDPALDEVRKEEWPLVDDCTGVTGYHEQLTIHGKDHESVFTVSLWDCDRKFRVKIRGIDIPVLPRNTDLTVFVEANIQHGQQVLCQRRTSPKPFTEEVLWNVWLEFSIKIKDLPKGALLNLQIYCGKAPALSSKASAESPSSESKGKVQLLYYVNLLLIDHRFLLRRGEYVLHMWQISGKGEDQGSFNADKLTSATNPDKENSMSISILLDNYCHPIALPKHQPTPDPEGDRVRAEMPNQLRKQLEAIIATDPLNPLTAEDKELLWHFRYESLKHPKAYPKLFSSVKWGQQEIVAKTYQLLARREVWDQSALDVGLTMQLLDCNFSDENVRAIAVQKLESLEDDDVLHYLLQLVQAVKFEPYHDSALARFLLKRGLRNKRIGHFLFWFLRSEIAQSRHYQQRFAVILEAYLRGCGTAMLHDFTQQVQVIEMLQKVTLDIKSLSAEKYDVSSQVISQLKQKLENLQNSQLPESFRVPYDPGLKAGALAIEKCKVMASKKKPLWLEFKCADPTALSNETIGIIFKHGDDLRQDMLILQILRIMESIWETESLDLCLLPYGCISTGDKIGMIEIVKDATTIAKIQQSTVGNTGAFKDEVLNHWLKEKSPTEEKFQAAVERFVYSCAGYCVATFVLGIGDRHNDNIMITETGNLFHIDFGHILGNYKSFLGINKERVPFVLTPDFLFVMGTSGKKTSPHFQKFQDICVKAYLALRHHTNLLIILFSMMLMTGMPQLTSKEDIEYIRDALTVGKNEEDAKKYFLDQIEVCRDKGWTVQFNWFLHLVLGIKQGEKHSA
How it was run: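 Recombinant PI3K isoforms (p85α complexes or p110γ alone) reacted 80 min at room temperature, then ADP detection mix added for 60 min. ADP formation read by far-red competitive fluorescence polarization immunoassay; IC50 by curve fitting.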

p110β/p85α, sequence (P42338 whole entry): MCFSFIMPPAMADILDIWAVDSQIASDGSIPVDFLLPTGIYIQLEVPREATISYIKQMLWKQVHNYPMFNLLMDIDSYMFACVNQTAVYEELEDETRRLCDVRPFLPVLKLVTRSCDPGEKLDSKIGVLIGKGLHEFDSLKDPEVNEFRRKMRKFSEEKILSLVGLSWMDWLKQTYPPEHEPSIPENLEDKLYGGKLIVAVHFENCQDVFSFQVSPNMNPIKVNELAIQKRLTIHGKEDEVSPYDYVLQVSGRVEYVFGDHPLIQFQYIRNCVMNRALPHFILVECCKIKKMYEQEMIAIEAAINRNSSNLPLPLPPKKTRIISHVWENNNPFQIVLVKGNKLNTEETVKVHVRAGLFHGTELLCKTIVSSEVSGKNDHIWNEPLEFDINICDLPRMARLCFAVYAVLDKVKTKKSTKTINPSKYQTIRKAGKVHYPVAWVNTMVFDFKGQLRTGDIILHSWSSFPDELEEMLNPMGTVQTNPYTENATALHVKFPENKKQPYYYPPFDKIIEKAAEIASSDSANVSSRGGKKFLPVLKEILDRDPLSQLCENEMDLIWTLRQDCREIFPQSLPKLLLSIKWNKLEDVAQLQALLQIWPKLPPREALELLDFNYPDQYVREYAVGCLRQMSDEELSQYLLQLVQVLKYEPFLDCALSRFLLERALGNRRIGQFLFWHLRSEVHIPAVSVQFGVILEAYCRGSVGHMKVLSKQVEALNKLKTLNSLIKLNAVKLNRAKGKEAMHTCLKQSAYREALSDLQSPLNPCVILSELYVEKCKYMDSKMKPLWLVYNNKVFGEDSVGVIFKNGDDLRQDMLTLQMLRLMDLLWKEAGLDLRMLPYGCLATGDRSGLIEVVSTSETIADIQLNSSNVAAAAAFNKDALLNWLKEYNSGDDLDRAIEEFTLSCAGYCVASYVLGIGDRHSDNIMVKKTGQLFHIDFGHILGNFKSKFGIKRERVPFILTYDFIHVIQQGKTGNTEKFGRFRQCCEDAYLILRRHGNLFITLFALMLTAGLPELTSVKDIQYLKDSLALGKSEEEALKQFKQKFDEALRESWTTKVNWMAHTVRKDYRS
p110β/p85α, sequence (P27986 2-724 partner): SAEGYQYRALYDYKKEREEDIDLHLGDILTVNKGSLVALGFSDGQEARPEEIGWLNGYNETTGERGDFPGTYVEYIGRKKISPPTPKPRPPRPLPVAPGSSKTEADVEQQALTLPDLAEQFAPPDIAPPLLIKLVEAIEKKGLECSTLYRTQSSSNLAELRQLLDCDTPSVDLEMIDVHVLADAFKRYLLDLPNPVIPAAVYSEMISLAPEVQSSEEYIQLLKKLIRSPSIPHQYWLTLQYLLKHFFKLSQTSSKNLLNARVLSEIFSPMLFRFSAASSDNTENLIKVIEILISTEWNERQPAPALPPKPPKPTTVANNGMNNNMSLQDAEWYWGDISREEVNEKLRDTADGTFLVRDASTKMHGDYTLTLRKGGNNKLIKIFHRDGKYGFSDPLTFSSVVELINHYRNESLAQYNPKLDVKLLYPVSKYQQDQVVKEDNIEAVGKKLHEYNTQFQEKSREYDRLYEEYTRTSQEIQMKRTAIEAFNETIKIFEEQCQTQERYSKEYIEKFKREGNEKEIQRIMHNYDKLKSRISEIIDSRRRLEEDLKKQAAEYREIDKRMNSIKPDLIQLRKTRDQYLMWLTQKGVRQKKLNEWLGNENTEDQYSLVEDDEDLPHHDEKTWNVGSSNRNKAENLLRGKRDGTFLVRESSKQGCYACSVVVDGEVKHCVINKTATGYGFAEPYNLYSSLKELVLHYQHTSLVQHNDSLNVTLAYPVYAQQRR

SMILES	PI3Kβ IH % @ 1 uM (p110β/p85α)	pIC50 (p110β/p85α)	PI3Kδ IH % @ 1 uM (p110δ/p85α)	pIC50 (p110δ/p85α)	PI3Kγ IH % @ 1 uM (p110γ)	pIC50 (p110γ)
CC(Nc1ncnc2[nH]cc(C#N)c12)c1cc2ncc(Cl)n2c(=O)n1-c1ccccc1 (stereo not shown) [Compound 116]	>100%	6.89	>100%	8.30	96.9%	7.35
CC(Nc1ncnc(N)c1C#N)c1cc2ncc(Cl)n2c(=O)n1-c1ccccc1 (stereo not shown) [Compound 117]	>100%	7.42	>100%	8.30	>100%	7.37
CC(Nc1ncnc2[nH]cc(C#N)c12)c1cc2ncc(Cl)n2c(=O)n1-c1cccc(F)c1 (stereo not shown) [Compound 118]	19.1%	–	77.5%	6.33	5.2%	–
CC(Nc1ncnc2[nH]cnc12)c1cc2cccn2c(=O)n1-c1ccccc1 (stereo not shown) [Compound 119, 3-(1-(9H-purin-6-ylamino)ethyl)-2-phenylpyrrolo[1,2-c]pyrimidin-1(2H)-one]	47.8%	–	94.3%	–	85.6%	6.62
CC(Nc1ncnc(N)c1C#N)c1cc2cccn2c(=O)n1-c1ccccc1 (stereo not shown) [Compound 120]	74.7%	6.63	>100%	–	85.9%	6.53
CC(Nc1ncnc2[nH]cnc12)c1cc2ccc(Cl)n2c(=O)n1-c1ccccc1 (stereo not shown) [Compound 122, 3-(1-(9H-purin-6-ylamino)ethyl)-7-chloro-2-phenylpyrrolo[1,2-c]pyrimidin-1(2H)-one]	88.3%	7.29	>100%	8.52	>100%	8.10
CC(Nc1ncnc2[nH]cc(C#N)c12)c1cc2ccc(Cl)n2c(=O)n1-c1ccccc1 (stereo not shown) [Compound 124]	95.0%	7.66	98.0%	8.70	>100%	7.92
CC(Nc1ncnc(N)c1C#N)c1cc2ccc(Cl)n2c(=O)n1-c1ccccc1 (stereo not shown) [Compound 125]	95.7%	8.22	>100%	9.00	94.0%	8.52
CC(Nc1ncnc(N)c1C#N)c1cc2c(Cl)cc(Cl)n2c(=O)n1-c1ccccc1 (stereo not shown) [Compound 126]	90.9%	7.60	>100%	9.00	>100%	7.70
CC(Nc1ncnc2[nH]cc(C#N)c12)c1cc2c(Cl)cc(Cl)n2c(=O)n1-c1cccc(F)c1 (stereo not shown) [Compound 129]	17.8%	–	97.8%	7.74	33.3%	–
O=c1c2c(F)ccn2nc([C@@H]2C[C@H](F)CN2c2ncnc3[nH]cnc23)n1-c1ccccc1 [Compound 132, 5-fluoro-2-((2S,4S)-4-fluoro-1-(9H-purin-6-yl)pyrrolidin-2-yl)-3-phenylpyrrolo[2,1-f][1,2,4]triazin-4(3H)-one]	74.5%	6.47	>100%	8.05	>100%	7.15
Nc1nc(N2CC[C@H]2c2nn3ccc(Br)c3c(=O)n2-c2ccccc2)n2nccc2n1 [Compound 135]	20.6%	–	74.5%	7.29	>100%	7.92
Nc1nc(N2CC(F)(F)C[C@H]2c2nn3ccc(Cl)c3c(=O)n2-c2ccccc2)n2nccc2n1 [Compound 136]	27.6%	–	83.5%	6.91	95.0%	7.38
Nc1nc(N2CC[C@H]2c2nn3ccc(Cl)c3c(=O)n2-c2ccccc2)n2nccc2n1 [Compound 137]	35.9%	–	96.8%	7.44	89.3%	7.89

The next lines start with the values.

PI3Kβ IH % @ 1 uM (p110β/p85α)	pIC50 (p110β/p85α)	PI3Kδ IH % @ 1 uM (p110δ/p85α)	pIC50 (p110δ/p85α)	PI3Kγ IH % @ 1 uM (p110γ)	pIC50 (p110γ)	SMILES
11.5%	–	88.1%	6.76	65.9%	–	CCc1ccn2nc([C@@H]3CCN3c3ncnc4[nH]cc(C#N)c34)n(-c3ccccc3)c(=O)c12 [Compound 133, (S)-4-(2-(5-ethyl-4-oxo-3-phenyl-3,4-dihydropyrrolo[2,1-f][1,2,4]triazin-2-yl)azetidin-1-yl)-7H-pyrrolo[2,3-d]pyrimidine-5-carbonitrile]
59.2%	–	>100%	8.30	>100%	7.52	Nc1nc(N2CCC[C@H]2c2nn3ccc(Cl)c3c(=O)n2-c2ccccc2)n2nccc2n1 [Compound 134, (S)-2-(1-(2-aminopyrazolo[1,5-a][1,3,5]triazin-4-yl)pyrrolidin-2-yl)-5-chloro-3-phenylpyrrolo[2,1-f][1,2,4]triazin-4(3H)-one]
42.3%	–	>100%	7.92	95.0%	7.12	Nc1ncnc(N2CCC[C@H]2c2nn3ccc(Cl)c3c(=O)n2-c2ccccc2)n1 [Compound 138, (S)-2-(1-(4-amino-1,3,5-triazin-2-yl)pyrrolidin-2-yl)-5-chloro-3-phenylpyrrolo[2,1-f][1,2,4]triazin-4(3H)-one]
18.0%	–	64.8%	–	46.5%	–	NC(=O)c1ccn2nc([C@@H]3CCCN3c3ncnc4[nH]cnc34)n(-c3ccccc3)c(=O)c12 [Compound 139, (S)-2-(1-(9H-purin-6-yl)pyrrolidin-2-yl)-4-oxo-3-phenyl-3,4-dihydropyrrolo[2,1-f][1,2,4]triazine-5-carboxamide]
15.0%	–	>100%	7.29	82.3%	6.94	N#Cc1c[nH]c2ncnc(N3CCC[C@H]3c3nn4ccc(C(N)=O)c4c(=O)n3-c3ccccc3)c12 [Compound 140]
28.2%	–	>100%	8.30	92.3%	6.82	N#Cc1c(N)ncnc1N1CC(F)(F)C[C@H]1c1nn2ccc(Cl)c2c(=O)n1-c1ccccc1 [Compound 141]
13.5%	–	81.1%	6.53	75.5%	6.41	O=c1c2c(Cl)ccn2nc([C@@H]2CCN2c2ncnc3[nH]ccc23)n1-c1ccccc1 [Compound 142]
63.0%	–	88.8%	7.15	82.3%	7.02	CS(=O)(=O)c1c[nH]c2ncnc(N3CC[C@H]3c3nn4ccc(Cl)c4c(=O)n3-c3ccccc3)c12 [Compound 143]
62.5%	–	>100%	8.30	94.1%	7.36	CS(=O)(=O)c1c[nH]c2ncnc(N3CCC[C@H]3c3nn4ccc(Cl)c4c(=O)n3-c3ccccc3)c12 [Compound 144]
55.5%	–	>100%	8.70	>100%	8.05	O=c1c2c(Cl)ccn2nc([C@@H]2CCCN2c2ncnc3[nH]ccc23)n1-c1ccccc1 [Compound 145]
77.9%	6.92	>100%	9.00	97.3%	8.05	O=c1c2c(Cl)ccn2nc([C@@H]2CCCN2c2nc(F)nc3[nH]cnc23)n1-c1ccccc1 [Compound 146]
